According to patent US20250064729A1, “METHODS AND FORMULATIONS FOR IMPROVING THE PHARMACOKINETIC PROPERTIES OF NUTRACEUTICAL COMPOUNDS” (UNIVERSITY OF SOUTH CAROLINA, priority 2023, published 2025):
In brackets after ≈: the same amount, converted by molar mass.

Experiment: Solubility assessment under saturation conditions in simulated gastrointestinal media
Settings: thermodynamic from solid
Description: Biological media (Biorelevant.com, London, UK) were prepared according to the manufacturer's instructions. […] The resulting suspensions were left for 1 h at room temperature under constant magnetic stirring. A 200-μl aliquot of each suspension was taken into an Eppendorf tube and centrifuged at top speed, and 100 μl supernatant was taken for UV spectrometer detection at 434 nm for emodin and 371 nm for quercetin. The concentration was calculated based on standard curves established using pure emodin or quercetin completely dissolved in methanol.

| SMILES | solubility at 1 h (pH 1.6, fassgf or other biorelevant) | solubility at 1 h (pH 6.5, fassif) | solubility at 1 h (FaSSGF (fasted-state simulated gastric fluid), pH 1.6, fassgf or other biorelevant) | solubility at 1 h (FaSSIF (fasted-state simulated intestinal fluid), pH 6.5, fassif) | solubility at 1 h (FeSSIF (fed-state simulated intestinal fluid), pH 5, fessif) |
| --- | --- | --- | --- | --- | --- |
| Cc1cc(O)c2c(c1)C(=O)c1cc(O)cc(O)c1C2=O [Emodin, 1,3,8-trihydroxy-6-methylanthraquinone] | 7.1 µg/mL (≈ 26.3 µM) | 27.2 µg/mL (≈ 101 µM) | – | – | – |
| O=c1c(O)c(-c2ccc(O)c(O)c2)oc2cc(O)cc(O)c12 [Quercetin, 3,3′,4′,5,7-pentahydroxylflavone] | – | – | 20.8 µg/mL (≈ 68.8 µM) | 43.4 µg/mL (≈ 144 µM) | 146 µg/mL (≈ 481 µM) |
